From patent publication US8431593B2, “Heteroaryl amide derivatives” (H. Lundbeck A/S, priority 2006, dated 2013) come the findings set out here.

One assay addresses T1, P2X7 receptor (Homo sapiens, UniProt Q99572).
T1 construct: host or cells: SH-SY5Y
T1 sequence (Q99572 1-595): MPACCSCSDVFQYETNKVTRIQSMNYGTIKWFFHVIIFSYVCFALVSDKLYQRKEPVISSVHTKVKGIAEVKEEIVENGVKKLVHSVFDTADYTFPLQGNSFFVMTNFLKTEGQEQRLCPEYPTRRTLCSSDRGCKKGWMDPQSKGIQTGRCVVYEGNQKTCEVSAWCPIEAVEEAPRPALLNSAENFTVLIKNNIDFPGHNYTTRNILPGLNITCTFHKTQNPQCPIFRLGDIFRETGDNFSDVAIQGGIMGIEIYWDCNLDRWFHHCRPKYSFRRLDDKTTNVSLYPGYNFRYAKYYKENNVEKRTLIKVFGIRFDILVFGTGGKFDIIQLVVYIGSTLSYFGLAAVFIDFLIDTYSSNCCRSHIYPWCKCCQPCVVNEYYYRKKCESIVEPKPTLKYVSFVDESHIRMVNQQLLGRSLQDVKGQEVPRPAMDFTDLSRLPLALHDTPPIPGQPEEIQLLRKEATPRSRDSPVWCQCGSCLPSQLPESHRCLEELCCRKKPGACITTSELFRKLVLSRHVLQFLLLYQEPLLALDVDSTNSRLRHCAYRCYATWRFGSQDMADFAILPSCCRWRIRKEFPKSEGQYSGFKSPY
Description: P2X7 calcium mobilization assay, high throughput, antagonist activity (Example 4A).
Details: not given
It is filed as cell-based. In a few lines:
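Antagonism was measured as calcium fluorescence (FLIPR Tetra) in cells seeded one day earlier at 100,000/well, loaded with dye for 1 h and exposed to compound for 1 h at room temperature before agonist. Peak RFU, minus the no-agonist background, was referenced to the mean of the agonist wells.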
On the technique in general: Calcium assays in cells follow changes in intracellular calcium, usually with a dye or a luminescent sensor.
Take `CN(C)CCOCc1cn2c(C(=O)NCC34CC5CC(CC(C5)C3)C4)cccc2n1` [Compound 127, N-(adamantan-1-ylmethyl)-2-{[2-(dimethylamino)eth-oxy]methyl}imi-dazo[1,2-a]pyridine-5-carboxamide]: the IC50 (usually the concentration that inhibits the measured activity by half) is < 2000 nM.
Regarding `CCOC(=O)c1cn2c(C(=O)NCC(CC(C)C)c3ccccc3)cccc2n1` (stereo not shown) [Compound 128, ethyl 5-[(4-methyl-2-phenyl-pentyl)carbamoyl]imi-dazo[1,2-a]pyridine-2-carboxylate], the 50% inhibitory concentration (IC50) was < 2000 nM.
Still for that read-out and setting: the value for `CN(CCO)Cc1cn2c(C(=O)NCC34CC5CC(CC(C5)C3)C4)cccc2n1` [Compound 131, N-(adamantan-1-ylmethyl)-2-{[(2-hydroxyethyl)(meth-yl)amino]methyl}imi-dazo[1,2-a]pyridine-5-carboxamide] was < 2000 nM; that for `CC(C)N(CCO)Cc1cn2c(C(=O)NCC34CC5CC(CC(C5)C3)C4)cccc2n1` [Compound 132, N-(adamantan-1-ylmethyl)-2-{[(2-hydroxyethyl)(iso-propyl)amino]methyl}imi-dazo[1,2-a]pyridine-5-carboxamide] was < 2000 nM; that for `COCCN(C)Cc1cn2c(C(=O)NCC34CC5CC(CC(C5)C3)C4)cccc2n1` [Compound 133, N-(adamantan-1-ylmethyl)-2-{[(2-methoxyethyl)(meth-yl)amino]methyl}imi-dazo[1,2-a]pyridine-5-carboxamide] was < 2000 nM.
On to `O=C(NCC12CC3CC(CC(C3)C1)C2)c1cccc2nc(CN(CCO)CCO)cn12` [Compound 136, N-(adamantan-1-ylmethyl)-2-{[bis(2-hydroxyeth-yl)amino]methyl}imi-dazo[1,2-a]pyridine-5-carboxamide], for which the IC50 is < 2000 nM.
Still for that read-out and setting: the same measure for `O=C(NCC1CCCCC1)c1cccc2nc(CCl)cn12` [Compound 142, 2-(chloromethyl)-N-(cyclohexylmethyl)imi-dazo[1,2-a]pyridine-5-carboxamide]: < 2000 nM.
Still for that read-out and setting: the value for `CCOC(=O)Cc1cn2c(NC(=O)CC34CC5CC(CC(C5)C3)C4)cccc2n1` [Compound 145, ethyl {5-[(adamantan-1-ylacetyl)amino]imi-dazo[1,2-a]pyridin-2-yl}acetate] was < 2000 nM.
Still for that read-out and setting: the value for `CCCNC(=O)Cc1cn2c(C(=O)NCC34CC5CC(CC(C5)C3)C4)cccc2n1` [Compound 146, N-(adamantan-1-ylmethyl)-2-[2-oxo-2-(propylamino)ethyl]imi-dazo[1,2-a]pyridine-5-carboxamide] was < 2000 nM; that for `O=C(Cc1cn2c(C(=O)NCC34CC5CC(CC(C5)C3)C4)cccc2n1)NCC1CCCO1` (stereo not shown) [Compound 157, N-(adamantan-1-ylmethyl)-2-{2-oxo-2-[(tetrahydrofuran-2-ylmethyl)amino]ethyl}imi-dazo[1,2-a]pyridine-5-carboxamide] was < 2000 nM.

The assay is the same for the next values; noted with them: SH-SY5Y cells; 50% decrease in fluorescence response to 80 μM BzATP; read-out: IC50.
`N[C@@H]1CCN(C(=O)c2cn3c(C(=O)NCC45CC6CC(CC(C6)C4)C5)cccc3n2)C1` [Compound 129, N-(adamantan-1-ylmethyl)-2-{[(3R)-3-aminopyrrolidin-1-yl]carbonyl}imidazo[1,2-a]pyridine-5-carboxamide]: the IC50 is < 2000 nM.
Same read-out and setting: the same measure for `NC1CN(Cc2cn3c(C(=O)NCC45CC6CC(CC(C6)C4)C5)cccc3n2)C1` [Compound 130, N-(adamantan-1-ylmethyl)-2-[(3-aminoazetidin-1-yl)methyl]imidazo[1,2-a]pyridine-5-carboxamide]: < 2000 nM.
As to `O=C(NCC12CC3CC(CC(C3)C1)C2)c1cccc2nc(CN3CCC(O)C3)cn12` (stereo not shown) [Compound 134, N-(adamantan-1-ylmethyl)-2-[(3-hydroxypyrrolidin-1-yl)methyl]imidazo[1,2-a]pyridine-5-carboxamide], the concentration for half-maximal inhibition (IC50) is < 2000 nM.
Same read-out and setting: the value for `O=C(NCC12CC3CC(CC(C3)C1)C2)c1cccc2nc(CN3CCCC(O)C3)cn12` (stereo not shown) [Compound 135, N-(adamantan-1-ylmethyl)-2-[(3-hydroxypiperidin-1-yl)methyl]imidazo[1,2-a]pyridine-5-carboxamide] was < 2000 nM; that for `O=C(NCC12CC3CC(CC(C3)C1)C2)c1cccc2nc(CCN3C(=O)c4ccccc4C3=O)cn12` [Compound 137, N-(adamantan-1-ylmethyl)-2-[2-(1,3-dioxo-1,3-dihydro-2H-isoindol-2-yl)ethyl]imidazo[1,2-a]pyridine-5-carboxamide] was < 2000 nM.
Turning to `CC(C)CC(CNC(=O)c1cccc2nc(CCl)cn12)c1ccccc1` (stereo not shown) [Compound 138, 2-(chloromethyl)-N-(4-methyl-2-phenylpentyl)imidazo[1,2-a]pyridine-5-carboxamide], the IC50 was < 2000 nM.
The same measure, in the same setting: the value for `CCOC(=O)Cc1cn2c(C(=O)NCC(CC(C)C)c3ccccc3)cccc2n1` (stereo not shown) [Compound 139, ethyl {5-[(4-methyl-2-phenylpentyl)car-bamoyl]imidazo[1,2-a]pyridin-2-yl}acetate] was < 2000 nM; that for `C[C@H]1CN(C(=O)Cc2cn3c(C(=O)NCC45CC6CC(CC(C6)C4)C5)cccc3n2)CCN1` [Compound 140, N-(adamantan-1-ylmethyl)-2-{2-[(3S)-3-methylpiperazin-1-yl]-2-oxoethyl}imidazo[1,2-a]pyridine-5-carboxamide] was < 2000 nM.
Same read-out and setting: the same measure for `CCOC(=O)Cc1cn2c(C(=O)NCC3CCCCC3)cccc2n1` [Compound 141, ethyl {5-[(cyclohexylmethyl)car-bamoyl]imidazo[1,2-a]pyridin-2-yl}acetate]: < 2000 nM.
With `CCOC(=O)c1cn2c(NC(=O)CC34CC5CC(CC(C5)C3)C4)cccc2n1` [Compound 143, ethyl 5-[(adamantan-1-ylacetyl)amino]imidazo[1,2-a]pyridine-2-carboxylate], the IC50 is < 2000 nM.
As to `O=C(Cc1cn2c(C(=O)NCC34CC5CC(CC(C5)C3)C4)cccc2n1)NCC1CC1` [Compound 147, N-(adamantan-1-ylmethyl)-2-{2-[(cyclopropylmeth-yl)amino]-2-oxoethyl}imidazo[1,2-a]pyridine-5-carboxamide], the half-maximal inhibitory concentration (IC50) is < 2000 nM.
Same read-out and setting: the same measure for `O=C(Cc1cn2c(C(=O)NCC34CC5CC(CC(C5)C3)C4)cccc2n1)NC1CC1` [Compound 148, N-(adamantan-1-ylmethyl)-2-[2-(cyclopropylamino)-2-oxoethyl]imidazo[1,2-a]pyridine-5-carboxamide]: < 2000 nM.
For `O=C(Cc1cn2c(C(=O)NCC34CC5CC(CC(C5)C3)C4)cccc2n1)NC1CCCCC1` [Compound 149, N-(adamantan-1-ylmethyl)-2-[2-(cyclohexylamino)-2-oxoethyl]imidazo[1,2-a]pyridine-5-carboxamide], the concentration for half-maximal inhibition (IC50) is < 2000 nM.
On the same count and under the same terms, the value for `CC(C)NC(=O)Cc1cn2c(C(=O)NCC34CC5CC(CC(C5)C3)C4)cccc2n1` [Compound 150, N-(adamantan-1-ylmethyl)-2-[2-(isopropylamino)-2-oxoethyl]imidazo[1,2-a]pyridine-5-carboxamide] was < 2000 nM.
Still for that read-out and setting: the value for `O=C(Cc1cn2c(C(=O)NCC34CC5CC(CC(C5)C3)C4)cccc2n1)NC1CCC1` [Compound 151, N-(adamantan-1-ylmethyl)-2-[2-(cyclobutylamino)-2-oxoethyl]imidazo[1,2-a]pyridine-5-carboxamide] was < 2000 nM; that for `CCC(C)NC(=O)Cc1cn2c(C(=O)NCC34CC5CC(CC(C5)C3)C4)cccc2n1` (stereo not shown) [Compound 152, N-(adamantan-1-ylmethyl)-2-[2-(sec-butylamino)-2-oxoethyl]imidazo[1,2-a]pyridine-5-carboxamide] was < 2000 nM; that for `O=C(Cc1cn2c(C(=O)NCC34CC5CC(CC(C5)C3)C4)cccc2n1)NC1CCCC1` [Compound 153, N-(adamantan-1-ylmethyl)-2-[2-(cyclopentylamino)-2-oxoethyl]imidazo[1,2-a]pyridine-5-carboxamide] was < 2000 nM.
The same measure, in the same setting: the value for `CC(C)(C)CNC(=O)Cc1cn2c(C(=O)NCC34CC5CC(CC(C5)C3)C4)cccc2n1` [Compound 154, N-(adamantan-1-ylmethyl)-2-{2-[(2,2-dimethylpropyl)amino]-2-oxoethyl}imidazo[1,2-a]pyridine-5-carboxamide] was < 2000 nM; that for `CCOCCNC(=O)Cc1cn2c(C(=O)NCC34CC5CC(CC(C5)C3)C4)cccc2n1` [Compound 155, N-(adamantan-1-ylmethyl)-2-{2-[(2-ethoxyethyl)amino]-2-oxoethyl}imidazo[1,2-a]pyridine-5-carboxamide] was < 2000 nM.
In the case of `CC(C)OCCNC(=O)Cc1cn2c(C(=O)NCC34CC5CC(CC(C5)C3)C4)cccc2n1` [Compound 156, N-(adamantan-1-ylmethyl)-2-{2-[(2-isopropoxyethyl)amino]-2-oxoethyl}imidazo[1,2-a]pyridine-5-carboxamide], the half-maximal inhibitory concentration (IC50) is < 2000 nM.
The same measure, in the same setting: the value for `O=C(Cc1cn2c(C(=O)NCC34CC5CC(CC(C5)C3)C4)cccc2n1)NCC(F)(F)F` [Compound 158, N-(adamantan-1-ylmethyl)-2-{2-oxo-2-[(2,2,2-trifluoroethyl)amino]eth-yl}imidazo[1,2-a]pyridine-5-carboxamide] was < 2000 nM.
